For data set [1], the target named is BAF3 KIT EX11 DEL (Homo sapiens, UniProt P10721, cells depend on it, form not given). Nature of the data set: Ba/F3 KIT mutant viability assay (Cell Titer-Glo), EX11 DEL. It counts as cell-based. Particulars: 72 hours. As for the experimental part: (§1) KIT cDNAs were synthesized by GenScript and cloned into the pLVX-IRES-Puro vector (Clontech). Viral particles were produced by transfecting pLVX-IRES-puro vectors containing KIT mutant genes into HEK293 cells (Invitrogen) using the Trans-Lentiviral ORF Packaging Kit (Thermo Scientific). 48 hours post-transfection, virus-containing supernatants were harvested and incubated for another 48-72 hours with parental Ba/F3 cells (DSMZ) in the presence of 10 ng/ml IL-3 (R&D Systems). Transduced Ba/F3 cells were then selected by IL-3 withdrawal and puromycin (0.5-1 μg/mL, Invitrogen).
Chain of BAF3 KIT EX11 DEL (P10721 with tags, fused parts or gaps DEL557-558): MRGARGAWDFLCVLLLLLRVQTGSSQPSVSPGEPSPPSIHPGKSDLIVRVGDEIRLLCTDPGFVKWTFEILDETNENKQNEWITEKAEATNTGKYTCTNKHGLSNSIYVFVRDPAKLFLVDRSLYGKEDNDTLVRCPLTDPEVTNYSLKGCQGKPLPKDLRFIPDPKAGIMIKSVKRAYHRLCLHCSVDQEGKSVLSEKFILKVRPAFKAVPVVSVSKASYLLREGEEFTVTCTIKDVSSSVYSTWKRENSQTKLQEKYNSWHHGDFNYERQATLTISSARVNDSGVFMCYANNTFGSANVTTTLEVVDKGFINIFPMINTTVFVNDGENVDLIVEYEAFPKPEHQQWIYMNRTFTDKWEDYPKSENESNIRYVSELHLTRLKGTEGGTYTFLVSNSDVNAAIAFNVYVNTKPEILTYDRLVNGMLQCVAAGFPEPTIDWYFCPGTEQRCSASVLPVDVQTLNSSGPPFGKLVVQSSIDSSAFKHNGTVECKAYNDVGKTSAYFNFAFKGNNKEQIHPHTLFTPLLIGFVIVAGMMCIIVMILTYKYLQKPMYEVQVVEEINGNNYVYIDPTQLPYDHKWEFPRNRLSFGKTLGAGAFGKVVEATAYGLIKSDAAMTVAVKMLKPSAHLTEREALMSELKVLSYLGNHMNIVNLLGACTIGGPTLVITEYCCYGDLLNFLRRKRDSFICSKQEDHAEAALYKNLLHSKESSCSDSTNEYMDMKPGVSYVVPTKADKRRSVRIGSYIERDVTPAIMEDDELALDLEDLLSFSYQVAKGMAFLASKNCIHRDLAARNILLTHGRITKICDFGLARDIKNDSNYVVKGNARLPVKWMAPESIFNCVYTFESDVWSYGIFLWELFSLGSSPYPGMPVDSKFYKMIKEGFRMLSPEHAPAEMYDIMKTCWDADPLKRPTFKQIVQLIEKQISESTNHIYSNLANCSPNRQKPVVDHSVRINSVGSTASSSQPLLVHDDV
(§2) Cell lines (e.g., EX11DEL, EX11KEL/D816H, EX11DEL/T670I, and EX11DEL/V654A) were plated into 384 well plates using RPMI 1640 supplemented with 10% FBS at densities that produced linear growth and incubated at 37° C. in 5%(v/v) CO2. Cells were treated with eight concentrations of compound over a 4-fold dilution (10 uM to 0.61 nM) and viability was assessed using Cell Titer-Glo assay (Promega) after 72 hours. Data were plotted as percent viability relative to vehicle-treated cells. Dose-responses curves were generated and used to calculate IC50 values.

Data set [2] has as its target BAF3 KIT EX11 DEL/D816H (Homo sapiens, UniProt P10721, D816H, cells depend on it, form not given). Nature of the data set: Ba/F3 KIT mutant viability assay (Cell Titer-Glo), EX11 DEL/D816H. Type of data set: cell-based. Particulars: 72 hours. The procedure: as §1, §2
(In general: In ATP-based viability assays light output follows the ATP content of the culture.)

Data set [3] concerns the target BAF3 KIT EX11 DEL/T670I (Homo sapiens, UniProt P10721, T670I, cells depend on it, form not given). Nature of the data set: Ba/F3 KIT mutant viability assay (Cell Titer-Glo), EX11 DEL/T670I. Type of data set: cell-based. To be noted: 72 hours. As for the experimental part:
as §1, §2

For data set [4], the target named is BAF3 KIT EX11 DEL/V654A (Homo sapiens, UniProt P10721, V654A, cells depend on it, form not given). Put plainly: Ba/F3 KIT mutant viability assay (Cell Titer-Glo), EX11 DEL/V654A. Type of data set: cell-based. To be noted: 72 hours. As for the experimental part: as §1, §2
Chain of BAF3 KIT EX11 DEL/V654A (P10721 with tags, fused parts or gaps DEL557-558/V654A, form open): as the sequence (P10721 with tags, fused parts or gaps DEL557-558) above, with V652A counted along it
A short description of data set [5]: In vivo pharmacokinetic studies in rats. To be noted: rat. An excerpt:
For example, the pharmacokinetics of Compound (1a) has been studied. […] After repeat dosing for 10 days, increased AUC (area under the curve) were obtained with Compound (1a) at either dose (see FIG. 1).

A short description of data set [6]: In vivo pharmacokinetic studies in non-human primates (monkeys). Also on record: species or system monkey. To be noted: male and female monkeys, oral. As for the experimental part: Pharmacokinetic studies of Compound (1a) in non-human primates were also undertaken in male (FIG. 2A) and female (FIG. 2B) monkeys at two different doses (2 mg/kg and 4 mg/kg) via oral administration.

Chain of BAF3 KIT EX11 DEL/D816H (P10721 with tags, fused parts or gaps DEL557-558/D816H, form open): as the sequence (P10721 with tags, fused parts or gaps DEL557-558) above, with D814H counted along it
Chain of BAF3 KIT EX11 DEL/T670I (P10721 with tags, fused parts or gaps DEL557-558/T670I, form open): as the sequence (P10721 with tags, fused parts or gaps DEL557-558) above, with T668I counted along it

Usually GI50 stands for the concentration giving 50% growth inhibition. For the molecule `Cc1ccc(NC(=O)c2cc(C(F)(F)F)ccn2)cc1C#Cc1cnc(NC(=O)N2CC[C@@H](O)C2)s1` [Compound 2a], the 50% growth inhibitory concentration (GI50) in data set [1], in data set [2], in data set [3] and in data set [4] was less than 10 nM throughout.
As to `Cc1ccc(NC(=O)c2cc(C(F)(F)F)ccn2)cc1C#Cc1cnc(NC(=O)N2CC[C@H](N(C)C)C2)s1` [Compound 1a, N-[3-[2-[2-[[(3S)-3-(dimethylamino)pyrrolidine-1-carbonyl]amino]thiazol-5-yl]ethynyl]-4-methyl-phenyl]-4-(trifluoromethyl)pyridine-2-carboxamide], the GI50 in data set [1] is less than 10 nM; in data set [2] it was 10 to 50 nM; in data set [3], 10 to 50 nM; in data set [4], 10 to 50 nM. Besides, in data set [5] (oral, 10 mg/kg and 30 mg/kg (either dose), repeat dosing for 10 days, FIG. 1), the “AUC (area under the curve) after repeat dosing” value is listed as “increased”. The “average observed plasma concentration (Cav) versus target exposure” value in data set [5] (oral, 30 mg/kg (the latter dose)) was “exceeded target exposure required for achieving desired antitumor efficacy”. Further, the “clearance (Cl)” value in data set [5] (single dose) is “high”. Besides, in data set [5] (single dose), the “volume of distribution (Vd)” value was “high”. The “curve shapes and AUC, Day 1 versus Day 10” value in data set [6] (2 mg/kg and 4 mg/kg (either dose), FIG. 2A/2B) was “similar”. The “exposure after repeat dosing” value in data set [6] (2 mg/kg and 4 mg/kg, Day 10 versus Day 1) is reported as “no significant loss of exposure”.
`CN[C@H]1CCN(C(=O)Nc2ncc(C#Cc3cc(NC(=O)c4cc(C(F)(F)F)ccn4)ccc3C)s2)C1` [Compound 5a]: the GI50 in data set [1] is less than 10 nM; in data set [2], 10 to 50 nM; in data set [3] it was 50 to 100 nM; in data set [4], 10 to 50 nM.
In the case of `Cc1ccc(NC(=O)c2cc(C(F)(F)F)ccn2)cc1C#Cc1cnc(NC(=O)N2CC(O)C2)s1` [Compound 3], the GI50 in data set [1] was less than 10 nM; in data set [2] it was 10 to 50 nM; in data set [3] it was 10 to 50 nM; in data set [4], 10 to 50 nM.
With `Cc1ccc(NC(=O)c2cc(C(F)(F)F)ccn2)cc1C#Cc1cnc(NC(=O)N2CC[C@H](O)C2)s1` [Compound 2b], the 50% growth inhibitory concentration (GI50) in data set [1], in data set [2], in data set [3] and in data set [4] was less than 10 nM in each case.
Turning to `Cc1ccc(NC(=O)c2cc(C(F)(F)F)ccn2)cc1C#Cc1cnc(NC(=O)N2CC(C)(O)C2)s1` [Compound 4], the 50% growth inhibitory concentration (GI50) was less than 10 nM in data set [1], 10 to 50 nM in data set [2], 10 to 50 nM in data set [3] and 10 to 50 nM in data set [4].
Take `Cc1ccc(NC(=O)c2cc(C(F)(F)F)ccn2)cc1C#Cc1cnc(NC(=O)N2CC[C@@H](N(C)C)C2)s1` [Compound 1b]: the concentration for 50% growth inhibition (GI50) was less than 10 nM in data set [1], 10 to 50 nM in data set [2], 10 to 50 nM in data set [3] and 10 to 50 nM in data set [4].

The values above are taken from patent publication US20240317731A1, “AMINOTHIAZOLE COMPOUNDS AS C-KIT INHIBITORS” (Theseus Pharmaceuticals, Inc., priority 2021, published 2024).
